Legend:
Test in all cases: Test B pre-/postemergence plant response
Format in all cases: in vivo
[1] = system: common (oilseed) sunflower (Helianthus annuus); details: Preemergence
In short: (§1)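 Seeds were sown and sprayed preemergence, while plants at 2 to 18 cm (1- to 4-leaf stage) got postemergence sprays. Compounds were formulated in a non-phytotoxic solvent mixture with surfactant. After 13 to 15 days in a greenhouse, injury was rated visually against untreated controls, 0 (no effect) to 100 (complete control).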

[2] = system: green foxtail (Setaria viridis); details: for Foxtail, Green plant response rating: 8 g ai/ha
In short: as §1

[3] = system: morningglory (Ipomoea coccinea); details: for Morningglory plant response rating: 8 g ai/ha
In short: as §1

[4] = system: large crabgrass (Digitaria sanguinalis); details: for Crabgrass, Large plant response rating: 8 g ai/ha
In short: as §1

[5] = system: downy bromegrass (Bromus tectorum); details: for Bromegrass, Downy plant response rating: 8 g ai/ha
In short: as §1

[6] = system: velvetleaf (Abutilon theophrasti); details: for Velvetleaf plant response rating: 8 g ai/ha
In short: as §1

[7] = system: giant foxtail (Setaria faberii); details: for Foxtail, Giant plant response rating: 8 g ai/ha
In short: as §1

wild oat (Avena fatua) = details: for Oat, Wild plant response rating: 8 g ai/ha
In short: as §1

[8] = system: blackgrass (Alopecurus myosuroides); details: for Blackgrass plant response rating: 8 g ai/ha
In short: as §1

[9] = system: catchweed bedstraw (Galium aparine); details: Preemergence
In short: as §1

[10] = system: bermudagrass (Cynodon dactylon); details: for Bermudagrass plant response rating: 8 g ai/ha
In short: as §1

[11] = system: lambsquarters (Chenopodium album); details: for Lambsquarters plant response rating: 8 g ai/ha
In short: as §1

corn (Zea mays) = details: for Corn plant response rating: 8 g ai/ha
In short: as §1

[12] = system: wheat (Triticum aestivum); details: for Wheat plant response rating: 8 g ai/ha
In short: as §1

[13] = 16 g ai/ha, scale 0 to 100 (0 no effect, 100 complete control)
[14] = 31 g ai/ha, 0 to 100 scale, 0 no effect, 100 complete control
[15] = Postemergence, 16 g ai/ha, scale 0 to 100
[16] = Postemergence, 31 g ai/ha, scale 0 to 100, 0 no effect, 100 complete control
[17] = Postemergence, 62 g ai/ha, scale 0 to 100
[18] = Preemergence, 16 g ai/ha, scale 0 to 100 (0 no effect, 100 complete control)
[19] = Preemergence, 31 g ai/ha, 0 to 100 scale, 0 no effect, 100 complete control
[20] = Preemergence, 62 g ai/ha, scale 0 to 100

Structure (SMILES): CCc1cc(-c2ccc(Cl)c(Cl)c2)nn1-c1c(O)cnn(C)c1=O [Compound 20]
- Plant response rating, Sunflower [1, 13]: 0
- Plant response rating, Sunflower [1, 14]: 30
- Plant response rating, Sunflower ([1]; 62 g ai/ha, scale 0 to 100): 40
- Sunflower plant response rating ([1]; 8 g ai/ha, scale 0 to 100): 0
- Foxtail, Green plant response rating ([2]; postemergence, 0-100 scale): 20
- Plant response rating, Foxtail, Green [2, 15]: 60
- Plant response rating, Foxtail, Green [2, 16]: 85
- Plant response rating, Foxtail, Green [2, 17]: 95
- Plant response rating, Foxtail, Green [2, 18]: 95
- Plant response rating, Foxtail, Green [2, 19]: 100
- Plant response rating, Foxtail, Green [2, 20]: 100
- Foxtail, Green plant response rating ([2]; Preemergence, scale 0 to 100): 20
- Morningglory plant response rating ([3]; postemergence, 0-100 scale): 0
- Plant response rating, Morningglory [3, 15]: 0
- Plant response rating, Morningglory [3, 16]: 0
- Plant response rating, Morningglory [3, 17]: 0
- Plant response rating, Morningglory [3, 18]: 0
- Plant response rating, Morningglory [3, 19]: 0
- Plant response rating, Morningglory [3, 20]: 0
- Morningglory plant response rating ([3]; Preemergence, scale 0 to 100): 0
- Crabgrass, Large plant response rating ([4]; postemergence, 0-100 scale): 5
- Plant response rating, Crabgrass, Large [4, 15]: 70
- Plant response rating, Crabgrass, Large [4, 16]: 85
- Plant response rating, Crabgrass, Large [4, 17]: 90
- Plant response rating, Crabgrass, Large [4, 18]: 50
- Plant response rating, Crabgrass, Large [4, 19]: 50
- Plant response rating, Crabgrass, Large [4, 20]: 60
- Crabgrass, Large plant response rating ([4]; Preemergence, scale 0 to 100): 0
- Bromegrass, Downy plant response rating ([5]; postemergence, 0-100 scale): 0
- Plant response rating, Bromegrass, Downy [5, 15]: 0
- Plant response rating, Bromegrass, Downy [5, 16]: 40
- Plant response rating, Bromegrass, Downy [5, 17]: 50
- Plant response rating, Bromegrass, Downy [5, 18]: 0
- Plant response rating, Bromegrass, Downy [5, 19]: 0
- Plant response rating, Bromegrass, Downy [5, 20]: 0
- Bromegrass, Downy plant response rating ([5]; Preemergence, scale 0 to 100): 0
- Velvetleaf plant response rating ([6]; postemergence, 0-100 scale): 0
- Plant response rating, Velvetleaf [6, 15]: 0
- Plant response rating, Velvetleaf [6, 16]: 0
- Plant response rating, Velvetleaf [6, 17]: 0
- Plant response rating, Velvetleaf [6, 18]: 0
- Plant response rating, Velvetleaf [6, 19]: 0
- Plant response rating, Velvetleaf [6, 20]: 0
- Velvetleaf plant response rating ([6]; Preemergence, scale 0 to 100): 0
- Foxtail, Giant plant response rating ([7]; postemergence, 0-100 scale): 80
- Plant response rating, Foxtail, Giant [7, 15]: 90
- Plant response rating, Foxtail, Giant [7, 16]: 95
- Plant response rating, Foxtail, Giant [7, 17]: 95
- Plant response rating, Foxtail, Giant [7, 18]: 0
- Plant response rating, Foxtail, Giant [7, 19]: 50
- Plant response rating, Foxtail, Giant [7, 20]: 100
- Foxtail, Giant plant response rating ([7]; Preemergence, scale 0 to 100): 0
- Oat, Wild plant response rating (wild oat (Avena fatua); postemergence, 0-100 scale): 50
- Plant response rating, Oat, Wild (wild oat (Avena fatua); [15]): 90
- Plant response rating, Oat, Wild (wild oat (Avena fatua); [16]): 90
- Plant response rating, Oat, Wild (wild oat (Avena fatua); [17]): 90
- Plant response rating, Oat, Wild (wild oat (Avena fatua); [18]): 0
- Plant response rating, Oat, Wild (wild oat (Avena fatua); [19]): 50
- Plant response rating, Oat, Wild (wild oat (Avena fatua); [20]): 60
- Oat, Wild plant response rating (wild oat (Avena fatua); Preemergence, scale 0 to 100): 0
- Blackgrass plant response rating ([8]; postemergence, 0-100 scale): 30
- Plant response rating, Blackgrass [8, 15]: 50
- Plant response rating, Blackgrass [8, 17]: 60
- Plant response rating, Blackgrass [8, 19]: 90
- Plant response rating, Blackgrass [8, 20]: 90
- Blackgrass plant response rating ([8]; Preemergence, scale 0 to 100): 10
- Plant response rating, Galium [9, 13]: 0
- Plant response rating, Galium [9, 14]: 50
- Plant response rating, Galium ([9]; 62 g ai/ha, scale 0 to 100): 100
- Galium plant response rating ([9]; 8 g ai/ha, scale 0 to 100): 0
- Bermudagrass plant response rating ([10]; postemergence, 0-100 scale): 0
- Plant response rating, Bermudagrass [10, 15]: 0
- Plant response rating, Bermudagrass [10, 16]: 0
- Plant response rating, Bermudagrass [10, 17]: 0
- Bermudagrass plant response rating ([10]; Preemergence, scale 0 to 100 (0 no effect, 100 complete control)): 0
- Plant response rating, Bermudagrass [10, 18]: 0
- Plant response rating, Bermudagrass [10, 19]: 0
- Plant response rating, Bermudagrass [10, 20]: 70
- Lambsquarters plant response rating ([11]; postemergence, 0-100 scale): 0
- Plant response rating, Lambsquarters [11, 15]: 0
- Plant response rating, Lambsquarters [11, 16]: 0
- Plant response rating, Lambsquarters [11, 17]: 40
- Plant response rating, Lambsquarters [11, 18]: 20
- Plant response rating, Lambsquarters [11, 19]: 100
- Plant response rating, Lambsquarters [11, 20]: 100
- Lambsquarters plant response rating ([11]; Preemergence, scale 0 to 100): 0
- Corn plant response rating (corn (Zea mays); postemergence, 0-100 scale): 0
- Plant response rating, Corn (corn (Zea mays); [15]): 90
- Plant response rating, Corn (corn (Zea mays); [16]): 95
- Plant response rating, Corn (corn (Zea mays); [18]): 5
- Plant response rating, Corn (corn (Zea mays); [19]): 80
- Plant response rating, Corn (corn (Zea mays); [20]): 95
- Corn plant response rating (corn (Zea mays); Preemergence, scale 0 to 100): 0
- Wheat plant response rating ([12]; postemergence, 0-100 scale): 0
- Plant response rating, Wheat [12, 15]: 20
- Plant response rating, Wheat [12, 16]: 20
- Plant response rating, Wheat [12, 17]: 60
- Plant response rating, Wheat [12, 18]: 0
- Plant response rating, Wheat [12, 19]: 0
- Plant response rating, Wheat [12, 20]: 0
- Wheat plant response rating ([12]; Preemergence, scale 0 to 100): 0

From patent US20100267561A1, “HERBICIDAL PYRIDAZINONE DERIVATIVES” (priority 2007, published 2010)
